Laboratory results published in BindingDB's records for doi:10.1016/j.bmcl.2011.01.107 (Institute of Chemical Physics, 2011).

Molecular target: NAD-dependent malic enzyme (Escherichia coli K-12, maeA) (UniProt P26616)
Test: Inhibition of Escherichia coli K-12 recombinant NAD-dependent malic enzyme by Dixon plot

Sequence of NAD-dependent malic enzyme (Escherichia coli K-12, maeA) (P26616 whole entry, looked up): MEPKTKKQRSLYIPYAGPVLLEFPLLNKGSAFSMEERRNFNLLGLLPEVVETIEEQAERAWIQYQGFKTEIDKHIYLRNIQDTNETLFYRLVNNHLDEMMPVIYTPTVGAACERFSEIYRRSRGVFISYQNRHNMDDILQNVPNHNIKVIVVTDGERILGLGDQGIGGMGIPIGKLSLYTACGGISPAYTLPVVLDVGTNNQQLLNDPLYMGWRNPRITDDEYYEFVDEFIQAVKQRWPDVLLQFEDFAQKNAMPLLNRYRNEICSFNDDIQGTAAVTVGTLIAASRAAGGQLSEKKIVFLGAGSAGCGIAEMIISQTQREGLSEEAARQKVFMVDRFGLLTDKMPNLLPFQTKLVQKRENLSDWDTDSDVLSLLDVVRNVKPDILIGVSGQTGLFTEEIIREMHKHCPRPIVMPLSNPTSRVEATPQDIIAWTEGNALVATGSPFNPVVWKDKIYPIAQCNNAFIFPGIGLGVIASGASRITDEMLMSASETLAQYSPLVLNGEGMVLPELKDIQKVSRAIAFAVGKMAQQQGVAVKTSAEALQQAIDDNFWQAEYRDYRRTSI

COc1ccc(-c2cn([C@@H]3O[C@H](COP(=O)(O)O)[C@@H](O)[C@H]3O)nn2)cc1 [5-O-phosphate-1-N-(4'-(4''-methoxyhenyl))-[1',2',3']-triazol-beta-D-ribofuranoside]
Ki: 57 µM
